In patent US9750746B2 (priority 2013, dated 2017):
Entries after “also recorded” stand apart in the source; their conditions may differ.

Assays:
[1] = system: Aβ25-35 treated mice; details: cited from earlier work
[2] = system: Aβ25-35 treated mice; assay: lipid peroxidation in the hippocampus, Aβ25-35 treated mice; assay type: in vivo, Male Swiss OF-1 mice; details: hydrochloride
Description: Administration schedule: mice received ANAVEX2-73 (0.1-1 mg/kg i.p.) once-a-day between days −7 and −1 and Aβ25-35 (9 nmol i.c.v.) at day 0. Animals were examined between days 7 and 9. Their brain dissected out and assessed for lipid peroxidation (LPO) at day 10.
Administration schedule: mice received Aβ25-35 (9 nmol i.c.v.) at day 0 and ANAVEX2-73 (0.1, 0.3 mg/kg i.p.) once-a-day between days 7 and 13. Animals were examined between days 14 and 16. Their brain dissected out and assessed for lipid peroxidation (LPO) at day 17.
(§1) Male Swiss OF-1 mice (Depré, St Doulchard, France), aged 7-9 weeks and weighing 32±2 g were used in this study. Animals were housed in plastic cages in groups. They had free access to food and water, except during behavioral experiments, and they were kept in a regulated environment (23±1° C., 40-60% humidity) under a 12 h light/dark cycle (light on at 07:00 am). Experiments were carried out between 09:00 am and 05:00 pm, in an experimental room within the animal facility. Mice were habituated 30 min before each experiment. Animal procedures were conducted in adherence with the EU Directive 86-609.
Tetrahydro-N,N-dimethyl-2,2-diphenyl-3-furanmethanamine hydrochloride (ANAVEX2-73) was synthesized in the laboratory (Anavex Life Sciences, Greece). […] Drugs were solubilized in physiological saline solution and administered intraperitoneally (i.p.) in a volume of 100 μl per 20 g body weight. The amyloid-β[25-35] (Aβ25-35) and scrambled β25-35 (Sc.Aβ) peptides from Genepep (France) were solubilized in distilled water at 3 mg/ml and stored at 20° C. until use. Peptides were aged at 37° C. for 4 days and injected i.c.v. (3 μl per mouse).
Mouse hippocampus was homogenized in cold methanol, centrifuged at 1,000 g 5 min and supernatant collected. Homogenate was added to a solution of FeSO4 1 mM, H2SO4 0.25 M, xylenol orange 1 mM and incubated for 30 min at RT. Absorbance was measured at 580 nm (A5801), and 10 μl of cumene hydroperoxide (CHP) 1 mM was added and incubated for 30 min at RT. Absorbance was measured at 580 nm (A5802). Lipid peroxidation was determined as CHP equivalents: CHP eq.=A5801/A5802×[CHP (nmol)]×dilution, and expressed as percentage of the Sc.Aβ/V-treated group value.

[3] = target: σ2 sites (Homo sapiens, UniProt Q5BJF2); details: reported binding analyses; cited from earlier work
[4] = target: σ1 (Homo sapiens, UniProt Q99720); details: believed to bind; cited from earlier work
[5] = system: Aβ25-35 treated mice; assay: combination studies in the Aβ25-35 model in mice, all parameters examined; assay type: in vivo, Male Swiss OF-1 mice; details: for minimal active dose: each drug, Aβ25-35 model in mice, ip; for efficacy of the drug alone in the combination studies with memantine: single drug, once 20 min before Aβ25-35
Description: (a) Administration schedule, (b) Y-maze test; (c) passive avoidance response. Administration schedule: mice received ANAVEX2-73 (0.1, 0.3 mg/kg i.p.) and/or donepezil (0.25, 0.5 mg/kg i.p.) once 20 min before Aβ25-35 (9 nmol i.c.v.) at day 0. Animals were examined between days 7 and 9.
(a) Administration schedule, (b) Y-maze test; (c) passive avoidance response. Administration schedule: mice received ANAVEX2-73 (0.1, 0.3 mg/kg i.p.) and/or memantine (0.5, 1 mg/kg i.p.) once 20 min before Aβ25-35 (9 nmol i.c.v.) at day 0. Animals were examined between days 7 and 9.
The spontaneous alternation (YMT) and passive avoidance (PAT) responses are shown. […] The 100% protection level represents the Sc.Aβ/V group and the 0% level, the Aβ25-35/V group. Only the data with the lowest doses tested are shown.
as §1
(§2) Donepezil (E2020) was from Eisai Tsukuba Research Laboratories (Tsukuba, Japan) and memantine was from Sigma-Aldrich (St Quentin-Fallavier, France). Drugs were solubilized in physiological saline solution and administered intraperitoneally (i.p.) in a volume of 100 μl per 20 g body weight. […] (Aβ25-35) and scrambled β25-35 (Sc.Aβ) peptides from Genepep (France) were solubilized in distilled water at 3 mg/ml and stored at 20° C. until use. Peptides were aged at 37° C. for 4 days and injected i.c.v. (3 μl per mouse).
(§3) Spatial working memory was examined through the measure of spontaneous alternation performance in the Y-maze. Animals were allowed to explore the Y-shaped maze during 8 min and the number of alternations (consecutive exploration of the 3 arms) and total number of arms entered was recorded.
(§4) Contextual long-term memory was measured using the step-through type passive avoidance test. During training, animals were placed in the white compartment of the two-compartment apparatus. The step-through latency to enter the dark compartment was recorded and mice received an electric shock (0.1 mA, 3 s). During the retention session, performed 24 h after training, the step-through latency to enter the dark compartement and escape latency, to re-exit, were recorded.

[6] = system: muscarinic M1-M4 receptors; details: cited from earlier work
[7] = system: Aβ25-35 treated mice; assay: step-through passive avoidance, Aβ25-35 treated mice; assay type: in vivo, Male Swiss OF-1 mice; details: hydrochloride
Description: as §1, §2, §4

[8] = system: sodium channel site 2; details: screening profile; cited from earlier work
[9] = system: Aβ25-35 treated mice; assay: spontaneous alternation in the Y-maze, Aβ25-35 treated mice; assay type: in vivo, Male Swiss OF-1 mice; details: hydrochloride
Description: Administration schedule: mice received ANAVEX2-73 (0.1-1 mg/kg i.p.) once-a-day between days −7 and −1 and Aβ25-35 (9 nmol i.c.v.) at day 0. Animals were examined between days 7 and 9.
Administration schedule: mice received Aβ25-35 (9 nmol i.c.v.) at day 0 and ANAVEX2-73 (0.1, 0.3 mg/kg i.p.) once-a-day between days 7 and 13. Animals were examined between days 14 and 16.
Administration schedule: mice received ANAVEX2-73 (0.1, 0.3 mg/kg i.p.) and/or donepezil (0.25, 0.5 mg/kg i.p.) once 20 min before Aβ25-35 (9 nmol i.c.v.) at day 0. Animals were examined between days 7 and 9.
Administration schedule: mice received ANAVEX2-73 (0.1, 0.3 mg/kg i.p.) and/or memantine (0.5, 1 mg/kg i.p.) once 20 min before Aβ25-35 (9 nmol i.c.v.) at day 0. Animals were examined between days 7 and 9.
as §1
Donepezil (E2020) was from Eisai Tsukuba Research Laboratories (Tsukuba, Japan) and memantine was from Sigma-Aldrich (St Quentin-Fallavier, France). Drugs were solubilized in physiological saline solution and administered intraperitoneally (i.p.) in a volume of 100 μl per 20 g body weight. The amyloid-β[25-35] (Aβ25-35) and scrambled β25-35 (Sc.Aβ) peptides from Genepep (France) were solubilized in distilled water at 3 mg/ml and stored at 20° C. until use. Peptides were aged at 37° C. for 4 days and injected i.c.v. (3 μl per mouse).
as §3

[10] = administered before the Aβ25-35 peptide
[11] = mice one week after icv Aβ25-35 (Villard et al. 2011)
[12] = delayed administration: 0.3 mg/kg ip (FIG. 2: 0.1, 0.3) once a day day 7 to 13 after Aβ25-35, measured 14 days after Aβ25-35, 0.3 mg/kg
[13] = early administration: 0.1, 0.3 mg/kg ip (FIG. 1: 0.1-1) once a day day -7 to -1 before Aβ25-35 (day 0), 7 days after Aβ25-35

σ1, sequence (Q99720 whole entry): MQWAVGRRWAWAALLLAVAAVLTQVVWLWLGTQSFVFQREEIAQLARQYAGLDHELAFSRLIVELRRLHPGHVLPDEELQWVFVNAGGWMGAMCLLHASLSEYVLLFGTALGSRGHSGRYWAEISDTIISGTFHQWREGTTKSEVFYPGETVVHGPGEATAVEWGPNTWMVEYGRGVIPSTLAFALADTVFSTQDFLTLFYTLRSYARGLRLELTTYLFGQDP
σ2 sites, sequence (Q5BJF2 whole entry): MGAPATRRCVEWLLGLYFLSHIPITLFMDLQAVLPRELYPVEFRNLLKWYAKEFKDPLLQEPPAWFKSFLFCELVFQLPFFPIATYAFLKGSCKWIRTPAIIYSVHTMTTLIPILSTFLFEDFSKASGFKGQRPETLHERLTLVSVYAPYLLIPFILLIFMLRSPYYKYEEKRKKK

Compound: CN(C)CC1CCOC1(c1ccccc1)c1ccccc1.Cl (stereo not shown) [ANAVEX2-73, Tetrahydro-N,N-dimethyl-2,2-diphenyl-3-furanmethanamine hydrochloride]
- Aβ25-35-induced P-Akt decrease ([1]; Lahmy et al. 2013): blocked
- Aβ25-35-induced P-GSK-3β increase ([1]; Lahmy et al. 2013): blocked
- dose preventing hippocampal cell loss [1, 10]: 0.3 to 1 mg/kg
- dose preventing oxidative stress [1, 10]: 0.3 to 1 mg/kg
- dose preventing the appearance of Aβ25-35-induced learning deficits [1, 10]: 0.03 mg/kg
- hyperphosphorylation of Tau on pathological epitopes (AT-100 clone) ([1]; in the dose-range tested): attenuated
- hyperphosphorylation of Tau on physiological epitopes (AT-8 antibody clone) ([1]; in the dose-range tested): attenuated
- caspases induction [1, 11]: attenuating
- cellular loss [1, 11]: attenuating
- learning and memory deficits [1, 11]: attenuating
- oxidative stress [1, 11]: attenuating
- Aβ25-35-induced endogenous Aβ1-42 seeding ([1]; mouse, in vivo): decreasing
- reversing the learning impairments ([1]; one week after icv injection of Aβ25-35 peptide): effective
- Aβ25-35-induced lipid peroxidation increase (toxicity) [2, 12]: significant attenuations; also recorded: effective
- Aβ25-35-induced lipid peroxidation in the hippocampus (toxicity) [2, 13]: significantly prevented; also recorded: blocked
- affinity for σ2 sites [3]: no affinity
- affinity for sigma-1 receptors [4]: low micromolar range
- minimal active dose [5]: 0.1 mg/kg
- efficacy of the drug alone in the combination studies with memantine [5]: therapeutic efficacy
- affinity for muscarinic acetylcholine receptors ([6]; believed to bind): low micromolar range
- IC50 ([6]; screening profile, range over M1-M4): 3.3 to 5.2 µM
- Aβ25-35-induced memory deficits, passive avoidance response [7, 12]: significant attenuations; also recorded: effective
- Aβ25-35-induced memory deficits, passive avoidance response [7, 13]: significantly prevented; also recorded: blocked
- IC50 [8]: 5.1 µM
- Aβ25-35-induced memory deficits, spontaneous alternation in the Y maze [9, 12]: significant attenuations; also recorded: effective
- Aβ25-35-induced memory deficits, spontaneous alternation in the Y maze [9, 13]: significantly prevented; also recorded: blocked

Compound: CC12CC3CC(C)(C1)CC(N)(C3)C2 [memantine, Memantine, reference compound]
- efficacy of the drug alone in the combination studies with memantine [5]: therapeutic efficacy

Compound: Donepezil [reference compound]
- minimal active dose [5]: 0.25 mg/kg
